Patent US4015974A, “Amido phosphorothiolates” (priority 1972, dated 1977)
≈ marks a conversion by molar mass, not a printed value. Read-outs that look alike come from different tables or passages of the source.

Assays:
Format in all cases: in vivo
[1] = system: rice stem borer (Chilo suppressalis); experiment: Lethal effect on rice stem borer (Table 6); settings: 50 % emulsifiable concentrate, 1000 fold dilute solution, 4 days after application
From the text: Eggs just before hatch of the rice stem borer were applied in a ratio of 100/pot near the root of rice plants grown up into the tillering stage in an […] Wagner's pot. After eggs were hatched and the larvae entered into stems of rice plants, an 1000 fold dilute solution of each 50 % emulsifiable concentrates of the present compounds was applied by means of a turn table.

[2] = system: barnyard grass (Echinochloa crus-galli); experiment: Pre-emergence application, herbicidal effect on barnyard grass (Table 1); set-up: key: 0: not damaged; 5: completely killed; settings: 20 days after application, score 0-5
How it was run: (§1)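 Scores run from 0 (undamaged) to 5 (fully killed), read 20 days post-treatment. Compounds were applied as water-diluted wettable powders to soil over freshly covered seeds in ~10 cm pots, with plants kept in a greenhouse.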

[3] = system: large crabgrass (Digitaria sanguinalis); experiment: Pre-emergence application, herbicidal effect on large crabgrass (Table 1); set-up: key: 0: not damaged; 5: completely killed; settings: 20 days after application, score 0-5
How it was run: as §1

radish = experiment: Pre-emergence application, herbicidal effect on radish (Table 1); set-up: key: 0: not damaged; 5: completely killed; settings: 20 days after application, score 0-5
How it was run: as §1

[4] = system: redroot pigweed (Amaranthus retroflexus); experiment: Pre-emergence application, herbicidal effect on redroot pigweed (Table 1); set-up: key: 0: not damaged; 5: completely killed; settings: 20 days after application, score 0-5
How it was run: as §1

[5] = system: common purslane (Portulaca oleracea); experiment: Pre-emergence application, herbicidal effect on common purslane (Table 1); set-up: key: 0: not damaged; 5: completely killed; settings: 20 days after application, score 0-5
How it was run: as §1

[6] = system: common lambsquarter (Chenopodium album); experiment: Pre-emergence application, herbicidal effect on common lambsquarter (Table 1); set-up: key: 0: not damaged; 5: completely killed; settings: 20 days after application, score 0-5
How it was run: as §1

rice = experiment: Water application, phytotoxicity on rice (Table 2); set-up: key: 0: no effect; 1: very slightly affected; 2: slightly affected; 3: moderately affected; 4: considerably affected; 5: completely killed; settings: 25 days, score 0-5
How it was run: (§2)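 Scores (0–5) taken 25 days post-treatment. Wettable-powder formulations were applied into standing water over paddy soil holding 3-leaf-stage transplanted rice, sown Echinochloa and naturally emerging monochoria, false pimpernel and toothcup.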

[7] = system: carmine mite (Tetranychus telavius); experiment: Lethal effect on carmine mite, leaf dipping (Table 3); settings: foliar
Experimental: A large number of carmine mite adult were made parasitic on leaves of potted kidney beans at a 2-leaves stage which had elapsed 10 days after sowing. The leaves of kidney bean on which carmine mites had been made parasitic were dipped for 1 minute in each aqueous solution of the present compounds of wettable powder type. Water was given to the leaves not to kill them, and after 48 hours the death and alive were observed microscopically to calculate the mortality. Values of LC50 were obtained from the mortality.

nematode = experiment: Effect on nematode (Table 7); set-up: tested at 500 ppm; settings: 500 p.p.m., 24 hours
Experimental: 0.5 ml. of a nematode-containing aqueous solution separated from food according to Baermann's method was placed in a test tube with ground stopper containing 0.5 ml. of an aqueous dilute solution of each emulsifiable concentrates of the present compounds. The concentration of the active ingredient in the mixture was adjusted to 500 p.p.m. After 24 hours, the death and alive were observed microscopically to calculate the mortality.

[8] = system: barnyard grass (Echinochloa crus-galli); experiment: Water application, herbicidal effect on barnyard grass (Table 2); set-up: key: 0: not damaged; 5: completely killed; settings: 25 days, score 0-5
How it was run: as §2

[9] = system: broad-leaved weeds, e.g., monochoria, false pimpernel and toothcup; experiment: Water application, herbicidal effect on broad-leaved weeds (Table 2); set-up: key: 0: not damaged; 5: completely killed; settings: 25 days, score 0-5
How it was run: as §2

[10] = system: broad-leaved weeds, e.g., monochoria, false pimpernel and toothcup; experiment: as above; set-up: key: 0: no effect; 1: very slightly affected; 2: slightly affected; 3: moderately affected; 4: considerably affected; 5: completely killed; settings: 10 g/a, 25 days, score 0-5
From the text: Wagner pots of 14 cm. in diameter, which had been packed with 1.5 kg. of paddy field soil, were brought into the state of paddy fields. To the pots were transplanted rice seedlings at the 3-leave stage. Further, seeds of barnyard grass (Echinochloa crus-galli) were sowed in the pots and required amounts of test compounds were applied to the soil under water lodged condition. 25 days after application, the degrees of herbicidal activity and phytotoxity were investigated on above-mentioned plants which had been transplanted and sowed, and on broad-leaved weeds, e.g., monochoria (Monochoria viaginalis Presl.), false pimpernel (Linderna pyxidaria) and toothcup (Rotala indica Koehue), which had been spontaneously germinated. The test compounds were used in the form of wettable powder. The herbicidal effects and the phytotoxity were evaluated as follows by the numerals ranging from 0 to 5.

CCOP(=O)(SCC(=O)N1CCCCC1C)SCC(C)C (stereo not shown) [Compound 6] showed a Mortality [1] of 75.0%.

With CCOP(=O)(SCCC(C)C)SCC(=O)N1CCCCC1C (stereo not shown) [Compound 7] the “Herbicidal effect, barnyard grass” value ([2]; 10 g./a.) was 5, the “Herbicidal effect, barnyard grass” value ([2]; 20 g./a.) was 5 and the “Herbicidal effect, barnyard grass” value ([2]; 40 g./a.) was 5. For the same compound, the “Herbicidal effect, large crabgrass” value ([3]; 10 g./a.) was 5, the “Herbicidal effect, large crabgrass” value ([3]; 20 g./a.) was 5 and the “Herbicidal effect, large crabgrass” value ([3]; 40 g./a.) was 5. The “Herbicidal effect, radish” value (radish; 10 g./a.) was 0, the “Herbicidal effect, radish” value (radish; 20 g./a.) was 0 and the “Herbicidal effect, radish” value (radish; 40 g./a.) was 0. The “Herbicidal effect, redroot pigweed” value ([4]; 10 g./a.) was 4, the “Herbicidal effect, redroot pigweed” value ([4]; 20 g./a.) was 5 and the “Herbicidal effect, redroot pigweed” value ([4]; 40 g./a.) was 5. For the same compound, the “Herbicidal effect, common purslane” value ([5]; 10 g./a.) was 5, the “Herbicidal effect, common purslane” value ([5]; 20 g./a.) was 5 and the “Herbicidal effect, common purslane” value ([5]; 40 g./a.) was 5. The “Herbicidal effect, common lambsquarter” value ([6]; 10 g./a.) was 5, the “Herbicidal effect, common lambsquarter” value ([6]; 20 g./a.) was 5 and the “Herbicidal effect, common lambsquarter” value ([6]; 40 g./a.) was 5. For the same compound, the Phytotoxicity on rice (rice; 10 g/a) was 0, the Phytotoxicity on rice (rice; 20 g/a) was 0 and the Phytotoxicity on rice (rice; 40 g/a) was 0. For the same compound, the LC50 ([7]; 48 h) was 18.5 µg/mL (≈ 50.3 µM), the Mortality (nematode) was 100% and the “Herbicidal effects, barnyard grass” value ([8]; 10 g/a) was 5. For the same compound, the “Herbicidal effects, barnyard grass” value ([8]; 20 g/a) was 5, the “Herbicidal effects, barnyard grass” value ([8]; 40 g/a) was 5 and the “Herbicidal effects, broad-leaved weeds” value ([9]; 10 g/a) was 5. For the same compound, the “Herbicidal effects, broad-leaved weeds” value ([9]; 20 g/a) was 5 and the “Herbicidal effects, broad-leaved weeds” value ([9]; 40 g/a) was 5.

CCOP(=O)(SCC(=O)N1CCCCC1C)SC1CCCCC1 (stereo not shown) [Compound 10] was tested, and the “Herbicidal effect, barnyard grass” value ([2]; 10 g./a.) was 4, the “Herbicidal effect, barnyard grass” value ([2]; 20 g./a.) was 4 and the “Herbicidal effect, barnyard grass” value ([2]; 40 g./a.) was 5. For the same compound, the “Herbicidal effect, large crabgrass” value ([3]; 10 g./a.) was 4, the “Herbicidal effect, large crabgrass” value ([3]; 20 g./a.) was 4 and the “Herbicidal effect, large crabgrass” value ([3]; 40 g./a.) was 5. The “Herbicidal effect, radish” value (radish; 10 g./a.) was 0, the “Herbicidal effect, radish” value (radish; 20 g./a.) was 0 and the “Herbicidal effect, radish” value (radish; 40 g./a.) was 0. The “Herbicidal effect, redroot pigweed” value ([4]; 10 g./a.) was 3, the “Herbicidal effect, redroot pigweed” value ([4]; 20 g./a.) was 4 and the “Herbicidal effect, redroot pigweed” value ([4]; 40 g./a.) was 4. For the same compound, the “Herbicidal effect, common purslane” value ([5]; 10 g./a.) was 3, the “Herbicidal effect, common purslane” value ([5]; 20 g./a.) was 4 and the “Herbicidal effect, common purslane” value ([5]; 40 g./a.) was 4. For the same compound, the “Herbicidal effect, common lambsquarter” value ([6]; 10 g./a.) was 3, the “Herbicidal effect, common lambsquarter” value ([6]; 20 g./a.) was 4 and the “Herbicidal effect, common lambsquarter” value ([6]; 40 g./a.) was 4. For the same compound, the Phytotoxicity on rice (rice; 10 g/a) was 0, the Phytotoxicity on rice (rice; 20 g/a) was 0 and the Phytotoxicity on rice (rice; 40 g/a) was 0. The Mortality (nematode) was 100%, the “Herbicidal effects, barnyard grass” value ([8]; 10 g/a) was 5 and the “Herbicidal effects, barnyard grass” value ([8]; 20 g/a) was 5. The “Herbicidal effects, barnyard grass” value ([8]; 40 g/a) was 5, the “Herbicidal effects, broad-leaved weeds” value ([9]; 20 g/a) was 5 and the “Herbicidal effects, broad-leaved weeds” value ([9]; 40 g/a) was 5. The “Herbicidal effects, broad-leaved weeds” value [10] was 4.

With CCOP(=O)(SCC(=O)N1CCCCC1C)SCc1ccccc1 (stereo not shown) [Compound 11] the “Herbicidal effect, barnyard grass” value ([2]; 10 g./a.) was 4, the “Herbicidal effect, barnyard grass” value ([2]; 20 g./a.) was 5 and the “Herbicidal effect, barnyard grass” value ([2]; 40 g./a.) was 5. The “Herbicidal effect, large crabgrass” value ([3]; 10 g./a.) was 4, the “Herbicidal effect, large crabgrass” value ([3]; 20 g./a.) was 5 and the “Herbicidal effect, large crabgrass” value ([3]; 40 g./a.) was 5. For the same compound, the “Herbicidal effect, radish” value (radish; 10 g./a.) was 0, the “Herbicidal effect, radish” value (radish; 20 g./a.) was 0 and the “Herbicidal effect, radish” value (radish; 40 g./a.) was 0. For the same compound, the “Herbicidal effect, redroot pigweed” value ([4]; 10 g./a.) was 4, the “Herbicidal effect, redroot pigweed” value ([4]; 20 g./a.) was 5 and the “Herbicidal effect, redroot pigweed” value ([4]; 40 g./a.) was 5. The “Herbicidal effect, common purslane” value ([5]; 10 g./a.) was 4, the “Herbicidal effect, common purslane” value ([5]; 20 g./a.) was 4 and the “Herbicidal effect, common purslane” value ([5]; 40 g./a.) was 5. For the same compound, the “Herbicidal effect, common lambsquarter” value ([6]; 10 g./a.) was 4, the “Herbicidal effect, common lambsquarter” value ([6]; 20 g./a.) was 4 and the “Herbicidal effect, common lambsquarter” value ([6]; 40 g./a.) was 5. It also gave a Phytotoxicity on rice (rice; 10 g/a) of 0, a Phytotoxicity on rice (rice; 20 g/a) of 0 and a Phytotoxicity on rice (rice; 40 g/a) of 0. For the same compound, the LC50 ([7]; 48 h) was 50 µg/mL (≈ 129 µM), the Mortality (nematode) was 100% and the “Herbicidal effects, barnyard grass” value ([8]; 10 g/a) was 5. For the same compound, the “Herbicidal effects, barnyard grass” value ([8]; 20 g/a) was 5, the “Herbicidal effects, barnyard grass” value ([8]; 40 g/a) was 5 and the “Herbicidal effects, broad-leaved weeds” value ([9]; 10 g/a) was 5. The “Herbicidal effects, broad-leaved weeds” value ([9]; 20 g/a) was 5 and the “Herbicidal effects, broad-leaved weeds” value ([9]; 40 g/a) was 5.

With CCCSP(=O)(OCC)SCC(=O)N1CCCCC1CC (stereo not shown) [Compound 14] the “Herbicidal effect, barnyard grass” value ([2]; 10 g./a.) was 5, the “Herbicidal effect, barnyard grass” value ([2]; 20 g./a.) was 5 and the “Herbicidal effect, barnyard grass” value ([2]; 40 g./a.) was 5. For the same compound, the “Herbicidal effect, large crabgrass” value ([3]; 10 g./a.) was 5, the “Herbicidal effect, large crabgrass” value ([3]; 20 g./a.) was 5 and the “Herbicidal effect, large crabgrass” value ([3]; 40 g./a.) was 5. For the same compound, the “Herbicidal effect, radish” value (radish; 10 g./a.) was 0, the “Herbicidal effect, radish” value (radish; 20 g./a.) was 0 and the “Herbicidal effect, radish” value (radish; 40 g./a.) was 0. For the same compound, the “Herbicidal effect, redroot pigweed” value ([4]; 10 g./a.) was 4, the “Herbicidal effect, redroot pigweed” value ([4]; 20 g./a.) was 5 and the “Herbicidal effect, redroot pigweed” value ([4]; 40 g./a.) was 5. For the same compound, the “Herbicidal effect, common purslane” value ([5]; 10 g./a.) was 5, the “Herbicidal effect, common purslane” value ([5]; 20 g./a.) was 5 and the “Herbicidal effect, common purslane” value ([5]; 40 g./a.) was 5. For the same compound, the “Herbicidal effect, common lambsquarter” value ([6]; 10 g./a.) was 4, the “Herbicidal effect, common lambsquarter” value ([6]; 20 g./a.) was 5 and the “Herbicidal effect, common lambsquarter” value ([6]; 40 g./a.) was 5. It also gave a Phytotoxicity on rice (rice; 10 g/a) of 0, a Phytotoxicity on rice (rice; 20 g/a) of 0 and a Phytotoxicity on rice (rice; 40 g/a) of 0. For the same compound, the LC50 ([7]; 48 h) was 23.1 µg/mL (≈ 65.3 µM), the Mortality (nematode) was 100% and the “Herbicidal effects, barnyard grass” value ([8]; 10 g/a) was 5. The “Herbicidal effects, barnyard grass” value ([8]; 20 g/a) was 5, the “Herbicidal effects, barnyard grass” value ([8]; 40 g/a) was 5 and the “Herbicidal effects, broad-leaved weeds” value ([9]; 10 g/a) was 5. The “Herbicidal effects, broad-leaved weeds” value ([9]; 20 g/a) was 5 and the “Herbicidal effects, broad-leaved weeds” value ([9]; 40 g/a) was 5.

Compound CCCSP(=O)(OC)SCC(=O)N1CCCCC1C (stereo not shown) [Compound 30] has an LC50 ([7]; 48 h) of 22.8 µg/mL (≈ 70.1 µM).

CCCCSP(=O)(OC)SCC(=O)N1CCCCC1C (stereo not shown) [Compound 31] showed a Mortality [1] of 69.5%.

C=C(C)CSP(=O)(OCC)SCC(=O)N1CCCCC1C (stereo not shown) [Compound 35] showed a Mortality [1] of 95.0%.

CCOC(=O)CC(SP(=S)(OC)OC)C(=O)OCC (stereo not shown) [Malathion, reference compound] showed a Mortality [1] of 41.3%.

Compound CC(COc1ccc(C(C)(C)C)cc1)OCC(C)OS(=O)OCCl (stereo not shown) [Smite, reference compound] has an LC50 ([7]; leaves dipped 1 minute, wettable powder, 48 hours, read-out: LC50) of 102 µg/mL (≈ 269 µM).
